{
  "source": "patent US9815788B2",
  "about": "“Anti-angiogenic compounds” (University College Dublin National University of Ireland, …, priority 2012, dated 2017)",
  "key": {"retinal blood vessels": {"test_system": "retinal blood vessels", "assay": "Ocular neovascularisation in mouse oxygen-induced retinopathy model", "format": "in vivo, C57BL/6J mice", "conditions": "5 μM injected intravitreally on P13, culled P17; compared to P17 control", "experimental": "Postnatal day (P) 7 C57BL/6J mice together with their dams were treated in 75% oxygen (hyperoxia) for 5 days causing regression of retinal blood vessels. They were returned to normoxia (relative hypoxia) on P12, causing rapid regrowth of the retinal blood vessels, 5 μM 11B_CC11_HCl, 5 μM 11B_CC16_HCl, 5 μM pazopanib or 2.5 mg/ml avastin was injected intravitreally on P13. The mice were culled on P17, eyes fixed in 4% paraformaldehyde at 4° C. overnight, flat mounted and retinas stained for isolectin (red, stains vasculature)."}, "CysLT1 receptor": {"target": "T1, CysLT1 receptor (Homo sapiens, UniProt Q9Y271)", "T1 construct": "host or cells: CHO cells", "T1 sequence (Q9Y271 1-337)": "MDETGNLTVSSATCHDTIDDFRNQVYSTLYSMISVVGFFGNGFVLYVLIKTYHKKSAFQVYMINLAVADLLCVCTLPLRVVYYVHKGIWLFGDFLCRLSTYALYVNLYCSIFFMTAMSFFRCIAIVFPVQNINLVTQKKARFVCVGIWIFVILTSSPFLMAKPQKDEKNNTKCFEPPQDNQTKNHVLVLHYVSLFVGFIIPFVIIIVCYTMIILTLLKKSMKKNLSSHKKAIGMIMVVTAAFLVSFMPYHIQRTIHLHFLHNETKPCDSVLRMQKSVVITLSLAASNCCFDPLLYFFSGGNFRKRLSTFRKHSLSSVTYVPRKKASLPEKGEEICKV", "assay": "CysLT1 calcium mobilisation assay in CHO cells", "format": "cell-based", "conditions": "0.1 nM LTD4, CHO cells expressing CysLT1, read-out: inhibition of calcium mobilisation (CysLT1 antagonism)", "experimental": "(§1) FIG. 15 tables the percentage inhibition by compounds 11B_CC11_HCl and 11B_CC16_HCl on the cysteinyl leukotriene pathway in in vitro and ex vivo assays. […] For in vitro cysteinyl leukotriene cell-based assays 11B_CC11_HCl and 11B_CC16_HCl, were tested at 30 μM concentration in duplicate, in a single experiment for their ability to inhibit the calcium mobilisation response of the CysLT1 receptor to 0.1 nM leukotriene D4 in CHO cells over-expressing the CysLT1 receptor or the calcium mobilisation response of the CysLT2 receptor to 30 nM of leukotriene C4 in HEK 293 cells over expressing the CysLT2 receptor.\n(§2) Target profiling using Cerep and Eurofins/Panlabs profiling screens was undertaken using 11B_CC11_HCl and 11B_CC16_HCl in order to investigate the mechanism of action. […] Test substance (30 LM)-induced isometrically recorded contraction by 50 percent or more within 5 min, relative to control 3 nM leukotriene D4 response, indicates possible cysteinyl-leukotriene LT1 receptor agonist activity. […] To measure inhibition of cysteinyl leukotriene 1 (CysLT1 [LTD4]) and cysteinyl leukotriene 2 (CysLT2 [LTC4]) receptor activity, calcium mobilisation was measured using Fluor-3-loaded CHO cells (for cysLT1 assays) or HEK-293 cells (for CysLT2 assays) which stably express either the CysLT1 or CysLT2 receptors. […]"}, "CysLT2 receptor": {"target": "T2, CysLT2 receptor (Homo sapiens, UniProt Q9NS75)", "T2 construct": "host or cells: HEK 293 cells", "T2 sequence (Q9NS75 1-346)": "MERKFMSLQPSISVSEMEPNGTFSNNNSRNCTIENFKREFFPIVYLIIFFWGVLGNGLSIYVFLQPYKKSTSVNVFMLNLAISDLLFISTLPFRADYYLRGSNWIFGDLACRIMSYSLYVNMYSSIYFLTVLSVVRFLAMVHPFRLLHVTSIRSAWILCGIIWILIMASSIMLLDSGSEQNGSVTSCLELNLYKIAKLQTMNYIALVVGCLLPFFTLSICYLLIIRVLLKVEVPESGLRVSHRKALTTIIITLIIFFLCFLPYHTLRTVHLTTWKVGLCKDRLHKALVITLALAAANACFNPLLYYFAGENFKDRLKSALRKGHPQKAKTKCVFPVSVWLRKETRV", "assay": "CysLT2 calcium mobilisation assay in HEK 293 cells", "format": "cell-based", "conditions": "HEK293, 30 nM LTC4, HEK-293 cells expressing CysLT2, read-out: inhibition of calcium mobilisation (CysLT2 antagonism)", "experimental": "as §1, §2"}, "[1]": {"test_system": "zebrafish intersegmental vessels", "assay": "Quantification of intersegmental vessel number in zebrafish", "format": "in vivo", "conditions": "for inhibition of developmental angiogenesis of intersegmental vessels (number of intersegmental vessels): 10 μM, from 6 hpf; for dose-dependent inhibition of development of intersegmental vessels: decreasing doses 10, 7.5, 5 and/or 1 μM, HCl salt", "method_in_brief": "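Zebrafish larvae were dechorionated by hand, euthanised, and fixed overnight at 4° C. in 4% PFA before being analysed. Following PBS washes, they were placed on depression slides and examined by epi-fluorescence on an Olympus SZX16 fluorescent microscope. Intersegmental vessels were counted, and the mean count was plotted for each drug.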"}},
  "data": [
    {"molecule": "C/C(=C\\c1ccccc1O)c1ccc2ccccc2n1.Cl", "note": "[Compound 11B_CC11_HCl, (E)-2-(2-Quinolin-2-yl-propenyl)-phenol HCl salt]", "values": [
      {"measurement": "inhibition of neovascularisation (avascular region as percentage of whole retina)", "setting": "retinal blood vessels", "value": "inhibit neovascularisation"},
      {"measurement": "inhibition at 30 µM", "setting": "CysLT1 receptor", "value": 137, "unit": "%"},
      {"measurement": "inhibition at 30 µM", "setting": "CysLT2 receptor", "value": 41, "unit": "%"},
      {"measurement": "inhibition of developmental angiogenesis of intersegmental vessels (number of intersegmental vessels)", "setting": "[1]", "value": "inhibit developmental angiogenesis of zebrafish intersegmental vessels in a statistically significant manner"},
      {"measurement": "dose-dependent inhibition of development of intersegmental vessels", "setting": "[1]", "value": "inhibit developmental angiogenesis of zebrafish intersegmental vessels in a dose-dependent statistically significant manner"},
      {"measurement": "dose-dependent inhibition of development of intersegmental vessels", "setting": "[1]; listed as 11B-CC11 HCl", "value": "dose-dependent effect"}
    ]},
    {"molecule": "Cl.Oc1ccccc1/C=C\\c1ccc2ccccc2n1", "note": "[Compound 11B_Z_HCl, (Z)-2-(2-(Quinolin-2-yl)vinyl) phenol HCl salt]", "values": [
      {"measurement": "inhibition of developmental angiogenesis of intersegmental vessels (number of intersegmental vessels)", "setting": "[1]", "value": "inhibit developmental angiogenesis of zebrafish intersegmental vessels in a statistically significant manner"}
    ]}
  ]
}
